Data taken from ChEMBL document CHEMBL1201862, “PubChem BioAssay data set” (2004).
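In this assay, cells in 96-well plates receive the compound at five concentrations for 48 hours. Endpoints are linearly interpolated between the surrounding concentrations. At the GI50, growth is halved.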 Active and inactive are the calls of the source. Cut-off read from the data, not from the text of the source: active = GI50 up to about 1.1 µM and inactive = higher.

Legend:
Test in all cases: NCI anticancer screen, dose series, 48 h
T47D = tested on: T47D
BT-549 = tested on: BT-549
MCF7 = tested on: MCF7
Hs-578T = tested on: Hs-578T
MDA-N = tested on: MDA-N
LXFL 529 = tested on: LXFL 529
KM-20L2 = tested on: KM-20L2
DLD-1 = tested on: DLD-1

| Compound | GI50 (T47D) | GI50 (BT-549) | GI50 (MCF7) | GI50 (Hs-578T) | GI50 (MDA-N) | GI50 (LXFL 529) | GI50 (KM-20L2) | GI50 (DLD-1) |
| --- | --- | --- | --- | --- | --- | --- | --- | --- |
| NS(=O)(=O)c1ccc(/N=N/c2ncccc2O)cc1 | > 100 µM (inactive) | > 100 µM (inactive) | 57.9 µM (inactive) | > 100 µM (inactive) | > 100 µM (inactive) | – | – | – |
| C=CCNS(=O)(=O)c1ncnc2[nH]cnc12 | > 100 µM (inactive) | > 100 µM (inactive) | > 100 µM (inactive) | > 100 µM (inactive) | 82.8 µM (inactive) | – | – | – |
| Cc1nc(O)c(Cc2ccccc2O)c(-c2ccccc2)n1 | 78.5 µM (inactive) | > 100 µM (inactive) | > 100 µM (inactive) | > 100 µM (inactive) | > 100 µM (inactive) | – | – | – |
| COC1(OC)c2ccccc2C2(O)c3ccccc3C(=O)C12 (centres undefined) | – | – | – | – | – | 20.7 µM (inactive) | 40.6 µM (inactive) | – |
| CC1=NN2C(c3ccc(C)cc3)=CSC2=NC(C)(C)C1 | – | – | – | – | – | > 100 µM (inactive) | > 100 µM (inactive) | > 100 µM (inactive) |
| CCN(C(C)=N)c1ccccc1 | – | – | – | – | – | 75.9 µM (inactive) | > 100 µM (inactive) | > 100 µM (inactive) |
| Cc1ccc(S[C@@H](C)[C@@](O)(CF)CN(Cc2ccccc2)C(=O)C(F)(F)F)cc1 | 28.8 µM (inactive) | 19.6 µM (inactive) | 20.8 µM (inactive) | 18.3 µM (inactive) | 22.8 µM (inactive) | – | – | – |
| CC(=O)NNc1nc(C)c(C(=O)NNC(=O)C(=O)Nc2ccc(Cl)c([N+](=O)[O-])c2)s1 | – | – | – | – | – | 27.2 µM (inactive) | > 100 µM (inactive) | – |
| CC1(C)CCC[C@@]2(C)C1C(=O)[C@@H]1O[C@]1(C)[C@@H]2CO (some centres undefined) | 26.7 µM (inactive) | 16.9 µM (inactive) | > 100 µM (inactive) | 34.3 µM (inactive) | 23.5 µM (inactive) | – | – | – |
| CCOC(=O)Nc1cc(NC(/C=N/NC(C)=O)C(=O)OCC)c(OC)cc1NC(C)=O (centres undefined) | > 100 µM (inactive) | > 100 µM (inactive) | > 100 µM (inactive) | > 100 µM (inactive) | > 100 µM (inactive) | – | – | – |
| COc1ccc2nc(-c3ccccc3)cc(OCC(=O)O)c2c1 | > 100 µM (inactive) | > 100 µM (inactive) | > 100 µM (inactive) | > 100 µM (inactive) | > 100 µM (inactive) | – | – | – |
| CCOC(=O)c1c[nH]c2cc3c(cc2c1=O)CCS3 | > 100 µM (inactive) | > 100 µM (inactive) | > 100 µM (inactive) | > 100 µM (inactive) | > 100 µM (inactive) | – | – | – |
| O=C1N[C@@H](c2c[nH]c3ccc(Br)cc23)C(=O)N[C@H]1c1c[nH]c2ccc(Br)cc12 | 10.8 µM (inactive) | 13.6 µM (inactive) | 12.6 µM (inactive) | 11 µM (inactive) | 8.17 µM (inactive) | – | – | – |
| O=C(Nc1ccccc1)c1ccc(Cl)c([N+](=O)[O-])c1 | – | – | – | – | – | 3.78 µM (inactive) | 13.5 µM (inactive) | 23.4 µM (inactive) |
| NCc1c(C(N)=O)ncn1Cc1ccccc1 | – | – | – | – | – | > 100 µM (inactive) | > 100 µM (inactive) | – |
| CCCCCCCC/C=C\CCCCCCC/C=C1\C[C@](/C=C/C(=O)OC)(CO)OC1=O | 3.27 µM (inactive) | 2.33 µM (inactive) | 3.28 µM (inactive) | 1.25 µM (inactive) | 0.834 µM (active) | – | – | – |
| CCCCc1ccc(Nc2nc3c(ncn3COCCBr)c(=O)[nH]2)cc1 | 40.1 µM (inactive) | > 100 µM (inactive) | > 100 µM (inactive) | > 100 µM (inactive) | > 100 µM (inactive) | – | – | – |
| CC(=O)NNc1nc(C)c(C(/C=C/c2ccc(Cl)cc2)=N/NC(=O)C[N+](C)(C)C)s1 | – | – | – | – | – | > 100 µM (inactive) | > 100 µM (inactive) | > 100 µM (inactive) |
| NC(=O)c1ccc(NCC2=CC(=O)C=CC2=O)cc1 | 28.1 µM (inactive) | 15.5 µM (inactive) | 23 µM (inactive) | 30.3 µM (inactive) | 17.3 µM (inactive) | – | – | – |

| Compound | GI50 (T47D) | GI50 (BT-549) | GI50 (MCF7) | GI50 (Hs-578T) | GI50 (MDA-N) | GI50 (LXFL 529) | GI50 (KM-20L2) | GI50 (DLD-1) |
| --- | --- | --- | --- | --- | --- | --- | --- | --- |
| C=CCn1c(-c2ccc([N+](=O)[O-])cc2)csc1=N | 26.2 µM (inactive) | 92.5 µM (inactive) | 25.4 µM (inactive) | > 100 µM (inactive) | 29.1 µM (inactive) | – | – | – |
| COc1cc(C2c3cc4c(cc3C(O)C3CCC(=O)N23)OCO4)cc(OC)c1OC (centres undefined) | > 100 µM (inactive) | 14.9 µM (inactive) | 16.5 µM (inactive) | 34.5 µM (inactive) | 5.56 µM (inactive) | – | – | – |
| Cc1ccc(S(=O)(=O)N/N=C(\C(=O)Nc2cccc([N+](=O)[O-])c2)c2nc3ccc([N+](=O)[O-])cc3nc2O)cc1 | – | – | – | – | – | 18.6 µM (inactive) | – | > 100 µM (inactive) |
| CCCCCCCCCCCCC/C=C1\C[C@H](O)COC1=O | – | – | – | – | – | 16.3 µM (inactive) | 16.9 µM (inactive) | 17 µM (inactive) |
| COC(=O)C1=C(C(=O)OC)C2=S(SC3=C2CCCC3)S1 (centres undefined) | – | – | – | – | – | 5.05 µM (inactive) | 24.6 µM (inactive) | 24 µM (inactive) |
| N#CC(/C(CCCC(=O)Nc1cccc([N+](=O)[O-])c1)=N\NC(=O)c1c(O)ccc2ccccc12)c1nc2ccccc2s1 (centres undefined) | – | – | – | – | – | 30.8 µM (inactive) | 27 µM (inactive) | 45.5 µM (inactive) |
| Cc1cc(C)c2c(=O)n(CN3CCC(C#N)(c4ccccc4)CC3)sc2n1 | > 100 µM (inactive) | 91.2 µM (inactive) | 62.5 µM (inactive) | 47.8 µM (inactive) | 29.6 µM (inactive) | – | – | – |
| CCCN(CCc1ccc(-c2ccccc2)cc1)CCc1ccc2nn[nH]c2c1 | 4.04 µM (inactive) | 8.2 µM (inactive) | 11.6 µM (inactive) | 17.4 µM (inactive) | 6.07 µM (inactive) | – | – | – |
| CC(=O)N(CN1C(=O)CCC1C(=O)O)c1ccccc1 (centres undefined) | > 57.3 µM (inactive) | > 100 µM (inactive) | > 56.8 µM (inactive) | > 53.3 µM (inactive) | > 58.9 µM (inactive) | – | – | – |
| CC1OC(n2ccc3ccc([N+](=O)[O-])cc32)C(O)C(O)C1O (centres undefined) | – | – | – | – | – | > 100 µM (inactive) | > 100 µM (inactive) | > 100 µM (inactive) |
| Cc1cccc(N/C(=C(/C(Cl)=C(Cl)Cl)[N+](=O)[O-])n2nnc3ccccc32)c1 | 22.1 µM (inactive) | 18.6 µM (inactive) | 21.6 µM (inactive) | 4.91 µM (inactive) | 23.5 µM (inactive) | – | – | – |
| CC1=CCC[C@@]2(C)C(CC[C@@H]2C(C)/C=C/C(C)C)c2ccc(cc2C(=O)O)C[C@@H](O)CC1 (some centres undefined) | – | – | – | – | – | 11.6 µM (inactive) | – | 3.67 µM (inactive) |
| O=C/C=C/c1ccco1 | > 100 µM (inactive) | > 100 µM (inactive) | > 100 µM (inactive) | > 100 µM (inactive) | > 100 µM (inactive) | – | – | – |
| COC(=O)c1ccc(C)cc1CC1Cc2cc(C)ccc2C1=O (centres undefined) | > 100 µM (inactive) | 94.2 µM (inactive) | > 100 µM (inactive) | > 100 µM (inactive) | > 100 µM (inactive) | – | – | – |
| COc1cccc(C(NC2=NCCC=N2)c2cc3c(cc2O)OCO3)c1O (centres undefined) | 25.5 µM (inactive) | 16.7 µM (inactive) | 18 µM (inactive) | 25.4 µM (inactive) | 27.2 µM (inactive) | – | – | – |
| COC(=O)C1N=CSCC1(C)O (centres undefined) | – | – | – | – | – | – | > 100 µM (inactive) | > 100 µM (inactive) |
| CC(CN(C)C)C(O)(c1ccccc1)c1ccccc1 (centres undefined) | > 100 µM (inactive) | > 100 µM (inactive) | > 100 µM (inactive) | > 100 µM (inactive) | > 100 µM (inactive) | – | – | – |
| COC(=O)[C@@]1(O)CC(C)C=C1C=O (some centres undefined) | – | – | – | – | – | 68.7 µM (inactive) | > 100 µM (inactive) | 43 µM (inactive) |
| COc1ccc(-c2cc(=O)c3c(OC)c(OC)c(OC)c(OC)c3o2)cc1 [TANGERETIN] | 17 µM (inactive) | 58.9 µM (inactive) | > 100 µM (inactive) | 34.2 µM (inactive) | 54.7 µM (inactive) | – | – | – |
